8 compounds from US20030133958A1, “External agent for the skin and whitening agent” (priority 2000, published 2003) can be followed below.

Structures are written as SMILES.

The test system of this experiment is B-16 melanoma cells. Nature of the experiment: Test for evaluating melanogenesis-inhibitory function (cell-whitening degree) in cell culture systems using B-16 melanoma cells. Further details: key to Whitening degree: ++: The whitening degree is higher than that observed when adding 450 μg/mL of vitamin C-magnesium phosphate.; +: The whitening degree is almost identical to that observed when adding 450 μ g/mL of vitamin C-magnesium phosphate.; ±: The whitening degree is not higher than that observed when adding 450 μg/mL of vitamin C-magnesium phosphate, but higher than that of the control.; −: The whitening degree is almost identical to that observed for the control. In kind it is cell-based. Particulars: for Whitening degree: B-16 melanoma cells. An excerpt:
The B-16 melanoma cell is one having an ability of producing melanin and therefore, the cells naturally grown by cell culture blacken. If a substance capable of inhibiting melanogenesis is present in the cell growth system during the cell growth, the blackening of the cells is inhibited and they relatively whiten. Accordingly, the whitening effect of each candidate substance can be evaluated on the basis of the degree of whiteness observed when adding a test sample relative to the degree of blackness observed for a control. […] To evaluate this cytotoxicity, the cell survival rate observed when adding a test sample to the system is compared with that observed for the control. Thus, the substantial whitening effect can be evaluated on the basis of the results of these cell-whitening test and cytotoxicity test.
An example of such a method for evaluating the melanogenesis-inhibitory function in a cell culture system using B-16 melanoma cells comprises, for instance, the steps of dispensing 2 ml/well of a culture medium to each well of a 6-well plate, inoculating a desired amount of melanoma cells to the medium, cultivating the cells by allowing the medium to stand at 37° C. and a carbon dioxide concentration of 5%. On the following day, a solution of a test sample is added and mixed with the culture medium to a predetermined concentration and the cell cultivation is continued. After 5 days from the initiation of the cultivation, the culture medium is replaced with fresh one and the solution of the test sample is again added thereto. On the next day, the medium is removed to thus recover the cells, followed by washing them with PBS (phosphate-buffered saline) and the determination of the degree of whiteness to thus evaluate the whitening effect of the test sample. In this connection, the melanogenesis-inhibitory function is evaluated by comparing the results thus obtained with the degree of whiteness observed when the same procedures are repeated using the vitamin C-magnesium phosphate as a known whitening agent instead of the test sample solution (positive control) and that observed when the procedures are repeated without addition of any test sample (control).
A culture medium was dispensed to wells of a 6-well plate (2 mL/well each), followed by inoculation of a desired amount of B-16 melanoma cells on each well, allowing the wells to stand at 37° C. and 5% CO2 to thus cultivate the cells. On the day subsequent thereto, a sample solution prepared was added to the wells with stirring and the cultivation was continued. The culture medium was replaced with fresh one on the 5th day from the initiation of the cultivation and the sample solution was again added to the wells. On the next day, the culture medium was removed to recover the cells, followed by washing them with PBS (phosphate buffered physiological saline) and then evaluation of the cell-whitening degree In this respect, the melanogenesis-inhibitory function was evaluated by comparing the cell-whitening degree thus obtained with that observed when the same procedures used above were repeated except that vitamin C-magnesium phosphate as a known whitening agent (positive control) was substituted for the sample solution used above and that observed when the same procedures used above were repeated except that any sample was not added (control), according to the following evaluation criteria.
The evaluation criteria for the cell-whitening degree are as follows: […]

As for `CCOC(=O)[C@]12CCC(C)(C)C[C@H]1C1=CC[C@@H]3[C@@]4(C)C[C@@H](O)[C@H](O)C(C)(C)[C@@H]4CC[C@@]3(C)[C@]1(C)CC2` [Compound of Synthesis 1, Ethyl Ester of Maslinic Acid], the Whitening degree result is “±” (concentration 2 ppm); “+” (concentration 4 ppm); “++” (concentration 6 ppm); “++” (concentration 8 ppm); “++” (concentration 10 ppm).

On to `CC(=O)O[C@@H]1C[C@]2(C)[C@H]3CC=C4[C@@H]5CC(C)(C)CC[C@]5(C(=O)O)CC[C@@]4(C)[C@]3(C)CC[C@H]2C(C)(C)[C@H]1OC(C)=O` [Compound of Synthesis 2, 2,3-O-Di-Acetyl-Maslinic Acid], for which the Whitening degree entry reads like this: (concentration 2 ppm) “±”; (concentration 4 ppm) “±”; (concentration 6 ppm) “+”; (concentration 8 ppm) “++”; (concentration 10 ppm) “++”; (concentration 15 ppm) “++”.

On to `CC(=O)OCC12CCC(C)(C)CC1C1=CCC3C4(C)CCC(OC(C)=O)C(C)(C)C4CCC3(C)C1(C)CC2` (stereo not drawn) [Compound of Synthesis 5, 3,28-O-Di-Acetyl-Erythrodiol], for which the Whitening degree result runs as follows: (concentration 2 ppm) “±”; (concentration 4 ppm) “±”; (concentration 6 ppm) “±”; (concentration 8 ppm) “±”; (concentration 10 ppm) “±”; (concentration 15 ppm) “±”. Further, the Whitening degree result is given as “+” (concentration 25 ppm) and “+” (concentration 50 ppm).

As for `CC(=O)OC[C@]12CC[C@@H](C)[C@H](C)[C@H]1C1=CC[C@@H]3[C@@]4(C)CC[C@H](OC(C)=O)C(C)(C)[C@@H]4CC[C@@]3(C)[C@]1(C)CC2` [Compound of Synthesis 6, 3,28-O-Di-Acetyl-Uvaol], the Whitening degree result is reported as “−” (concentration 2 ppm); “−” (concentration 4 ppm); “−” (concentration 6 ppm); “±” (concentration 8 ppm); “+” (concentration 10 ppm); “+” (concentration 15 ppm). For the same compound, the Whitening degree result reads like this: (concentration 25 ppm) “+”; (concentration 50 ppm) “+”.

With `C=C(C)[C@@H]1CC[C@]2(C(=O)OCC)CC[C@]3(C)[C@H](CC[C@@H]4[C@@]5(C)CC[C@H](O)C(C)(C)[C@@H]5CC[C@]43C)[C@@H]12` [Compound of Synthesis 7, Ethyl Ester of Betulinic Acid], the Whitening degree result runs as follows: (concentration 2 ppm) “−”; (concentration 4 ppm) “±”; (concentration 6 ppm) “±”; (concentration 8 ppm) “±”; (concentration 10 ppm) “+”; (concentration 15 ppm) “+”. Further, the Whitening degree result is “+” (concentration 25 ppm) and “+” (concentration 50 ppm).

On to `C=C(C)[C@@H]1CC[C@]2(COC(C)=O)CC[C@]3(C)[C@H](CC[C@@H]4[C@@]5(C)CC[C@H](OC(C)=O)C(C)(C)[C@@H]5CC[C@]43C)[C@@H]12` [Compound of Synthesis 8, 3,28-O-Di-Acetyl-Betulin], for which the Whitening degree result is, setting by setting: (concentration 2 ppm) “−”; (concentration 4 ppm) “−”; (concentration 6 ppm) “±”; (concentration 8 ppm) “±”; (concentration 10 ppm) “±”; (concentration 15 ppm) “+”. Besides, the Whitening degree result is “+” (concentration 25 ppm) and “+” (concentration 50 ppm).

For the compound `C=C(C)[C@@H]1CC[C@]2(C)CC[C@]3(C)[C@H](CC[C@@H]4[C@@]5(C)CC[C@H](O)C(C)(C)[C@@H]5CC[C@]43C)[C@@H]12` [lupeol, reference compound], the “whitening effect (melanogenesis-inhibitory function), in words” value is “never show any whitening effect”.

On to `CC1(C)CC[C@]2(C(=O)O)CC[C@]3(C)C(=CC[C@@H]4[C@@]5(C)CC[C@H](O)C(C)(C)[C@@H]5CC[C@]43C)[C@@H]2C1` [oleanolic acid, reference compound], for which the “whitening effect (melanogenesis-inhibitory function), in words” value is listed as “never show any whitening effect”.
